A word on the EC50: it is the concentration at which the effect is half-maximal.

The results in this text go back to patent publication US8772509B2, “Indole compounds as positive allosteric modulators of the muscarinic receptor” (Vanderbilt University, priority 2010, dated 2014).

In the assay the target is T1, mAChR M1 (UniProt P08482).
T1 sequence (P08482 1-460): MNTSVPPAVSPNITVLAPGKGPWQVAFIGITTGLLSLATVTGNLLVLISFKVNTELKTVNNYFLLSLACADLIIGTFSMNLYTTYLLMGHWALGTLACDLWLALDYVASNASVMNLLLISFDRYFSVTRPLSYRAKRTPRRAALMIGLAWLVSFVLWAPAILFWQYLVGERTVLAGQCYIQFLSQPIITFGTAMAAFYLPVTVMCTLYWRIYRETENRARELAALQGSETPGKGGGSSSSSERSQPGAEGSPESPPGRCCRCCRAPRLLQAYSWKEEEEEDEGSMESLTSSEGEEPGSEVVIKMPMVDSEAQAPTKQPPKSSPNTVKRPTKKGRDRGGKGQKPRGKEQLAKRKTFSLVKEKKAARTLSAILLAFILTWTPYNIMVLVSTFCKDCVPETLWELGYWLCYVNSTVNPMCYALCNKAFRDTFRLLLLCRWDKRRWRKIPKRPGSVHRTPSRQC
The assay can be described thus: mAChR M1 cell-based functional assay (calcium mobilization, Fluo-4, FDSS). Particulars: for EC50: positive allosteric modulation of EC20 acetylcholine response, CHO-K1 cells expressing mAChR M1, read-out: Potency (EC50); for Efficacy (% ACh maximum at 30 μM): maximal calcium flux response from curve fit or response at 30 μM compound, as % of the EC80 ACh response. The procedure:
Chinese hamster ovary (CHO-K1) cells stably expressing rat (r)M1 were purchased from the American Type Culture Collection and cultured according to their indicated protocol. […] To make stable rM2, hM2, rM3, hM4, and rM4 cell lines for use in calcium mobilization assays, these cells also were stably transfected with a chimeric G-protein (Gqi5) (provided by B. R. Conklin, University of California, San Francisco) using Lipofectamine 2000. rM1, hM1, rM3, hM3, rM5, and hM5 cells were grown in Ham's F-12 medium containing 10% heat-inactivated fetal bovine serum (FBS), 20 mM HEPES, and 50 μg/mL G418 sulfate. rM2-Gqi5, hM2-Gqi5, and hM4-Gqi5 cells were grown in the same medium also containing 500 μg/mL Hygromycin B. Stable rM4-Gqi5 cells were grown in DMEM containing 10% heat-inactivated FBS, 20 mM HEPES, 400 μg/mL G418 sulfate, and 500 μg/mL Hygromycin B.
For high throughput measurement of agonist-evoked increases in intracellular calcium, CHO-K1 cells stably expressing muscarinic receptors were plated in growth medium lacking G418 and hygromycin at 15,000 cells/20 μL/well in Greiner 384-well black-walled, tissue culture (TC)-treated, clear-bottom plates (VWR). Cells were incubated overnight at 37° C. and 5% CO2. […] Compound master plates were formatted in an 11 point CRC format (1:3 dilutions) in 100% DMSO with a starting concentration of 10 mM using the BRAVO liquid handler (Agilent). Test compound CRCs were then transferred to daughter plates (240 nL) using the Echo acoustic plate reformatter (Labcyte, Sunnyvale, Calif.) and then diluted into assay buffer (40 μL) to a 2× stock using a Thermo Fisher Combi (Thermo Fisher Scientific, Waltham, Mass.).
Calcium flux was measured using the Functional Drug Screening System (FDSS) 6000 (Hamamatsu Corporation, Tokyo, Japan) as an increase in the fluorescent static ratio. Compounds were applied to cells (20 μL, 2×) using the automated system of the FDSS 6000 at 4 s into the 300 s protocol and the data were collected at 1 Hz. […] Agonist activity was analyzed as a concentration-dependent increase in calcium mobilization upon compound addition. Positive allosteric modulator activity was analyzed as a concentration-dependent increase in the EC20 acetylcholine response. Antagonist activity was analyzed as a concentration-dependent decrease in the EC80 acetylcholine response. Concentration-response curves were generated using a four-parameter logistical equation in XLfit curve fitting software (IDBS, Bridgewater, N.J.) for Excel (Microsoft, Redmond, Wash.) or Prism (GraphPad Software, Inc., San Diego, Calif.).
The calcium mobilization assay was also used to determine “efficacy”. In the context of the assays carried out for the data in Table I, “efficacy” (% ACh at 30 μM) is defined as the maximal response in the calcium flux as determined by the sigmoidal curve fit of the concentration response curve, or in the absence of an acceptable curve fit, the response recorded at 30 μM test compound, stated as a percentage of the response elicited by a concentration of Ach that induces approximately 80% of a maximal (i.e. saturating) ACh response.

Molecules are shown by their SMILES.

On to `Cc1cc(NC(=O)CS(=O)(=O)c2cn(Cc3ccc(Cl)cc3)c3ccccc23)no1` [compound 48, 2-{1-[(4-chlorophenyl)methyl]-1H-indole-3-sulfonyl}-N-(5-methyl-1,2-oxazol-3-yl)acetamide], for which the EC50 was above 10 µM.
Take `O=C(CS(=O)(=O)c1cn(Cc2cccc(Br)c2)c2cc(F)cc(F)c12)Nc1ccccn1` [compound 6, 2-((1-(3-bromobenzyl)-4,6-difluoro-1H-indol-3-yl)sulfonyl)-N-(pyridin-2-yl)acetamide]: the “Efficacy (% ACh maximum at 30 μM)” value is reported as 62% and the EC50 was found to be 2.4 µM.
The corresponding values for `Cc1cc(NC(=O)CS(=O)(=O)c2cn(Cc3cc(-c4cn[nH]c4)ccc3F)c3ccccc23)no1` [compound 15, 2-((1-(2-fluoro-5-(1H-pyrazol-4-yl)benzyl)-1H-indol-3-yl)sulfonyl)-N-(5-methylisoxazol-3-yl)acetamide] are 96% and 3.07 µM.
As to `O=C(CS(=O)(=O)c1cn(Cc2cccc(Br)c2)c2cc(F)cc(F)c12)Nc1noc2ccccc12` [compound 21, N-(benzo[d]isoxazol-3-yl)-2-((1-(3-bromobenzyl)-4,6-difluoro-1H-indol-3-yl)sulfonyl)acetamide], the “Efficacy (% ACh maximum at 30 μM)” value came to 72% and the EC50 amounted to 3.7 µM.
The corresponding values for `COc1ncccc1-c1cccc(Cn2cc(S(=O)(=O)CC(=O)Nc3ccccn3)c3c(F)cc(F)cc32)c1` [compound 40, 2-((4,6-difluoro-1-(3-(2-methoxypyridin-3-yl)benzyl)-1H-indol-3-yl)sulfonyl)-N-(pyridin-2-yl)acetamide] are 37% and above 10 µM.
`Cc1cc(NC(=O)CS(=O)(=O)c2cn(Cc3ccc(F)c(Cl)c3)c3ccccc23)no1` [compound 52, 2-{1-[(3-chloro-4-fluorophenyl)methyl]-1H-indole-3-sulfonyl}-N-(5-methyl-1,2-oxazol-3-yl)acetamide]: the EC50 was above 10 µM.
With `Cc1cc(NC(=O)CS(=O)(=O)c2cn(Cc3cccc(-c4ccccc4)c3)c3ccccc23)no1` [compound 56, N-(5-methyl-1,2-oxazol-3-yl)-2-{1-[(3-phenylphenyl)methyl]-1H-indole-3-sulfonyl}acetamide], the EC50 was above 10 µM.
Still for that read-out and setting: next, `Cc1cc(NC(=O)CS(=O)(=O)c2cn(Cc3ccccc3F)c3ccccc23)no1` [compound 43, 2-{1-[(2-fluorophenyl)methyl]-1H-indole-3-sulfonyl}-N-(5-methyl-1,2-oxazol-3-yl)acetamide]: above 10 µM.
Turning to `Cc1noc(C)c1-c1cccc(Cn2cc(S(=O)(=O)CC(=O)Nc3ccccn3)c3c(F)cc(F)cc32)c1` [compound 17, 2-((1-(3-(3,5-dimethylisoxazol-4-yl)benzyl)-4,6-difluoro-1H-indol-3-yl)sulfonyl)-N-(pyridin-2-yl)acetamide], the “Efficacy (% ACh maximum at 30 μM)” value is given as 42% and the EC50 came to 3.4 µM.
The corresponding values for `Cc1cc(NC(=O)CS(=O)(=O)c2cn(Cc3cccc(-c4cc[nH]n4)c3F)c3ccccc23)no1` [compound 23, 2-((1-(2-fluoro-3-(1H-pyrazol-3-yl)benzyl)-1H-indol-3-yl)sulfonyl)-N-(5-methylisoxazol-3-yl)acetamide] are 103% and 4.4 µM.
As to `COc1ccccc1Cn1cc(S(=O)(=O)CC(=O)Nc2cc(C)on2)c2ccccc21` [compound 47, 2-{1-[(2-methoxyphenyl)methyl]-1H-indole-3-sulfonyl}-N-(5-methyl-1,2-oxazol-3-yl)acetamide], the EC50 was above 10 µM.
As to `Cc1cc(NC(=O)CS(=O)(=O)c2cn(Cc3ccc(F)nc3)c3ccccc23)no1` [compound 44, 2-{1-[(6-fluoropyridin-3-yl)methyl]-1H-indole-3-sulfonyl}-N-(5-methyl-1,2-oxazol-3-yl)acetamide], the EC50 was above 10 µM.
Turning to `Cc1cc(NC(=O)CS(=O)(=O)c2cn(Cc3ccc(F)cc3F)c3ccccc23)no1` [compound 49, 2-{1-[(2,4-difluorophenyl)methyl]-1H-indole-3-sulfonyl}-N-(5-methyl-1,2-oxazol-3-yl)acetamide], the EC50 was above 10 µM.
As for `Cc1cc(NC(=O)CS(=O)(=O)c2cn(Cc3cccc(-c4cn[nH]c4)c3)c3ccccc23)no1` [compound 5, 2-((1-(3-(1H-pyrazol-4-yl)benzyl)-1H-indol-3-yl)sulfonyl)-N-(5-methylisoxazol-3-yl)acetamide], the “Efficacy (% ACh maximum at 30 μM)” value is 90% and the EC50 is 2.19 µM.
For `COc1ccc(Cn2cc(S(=O)(=O)CC(=O)Nc3cc(C)on3)c3ccccc32)cc1` [compound 46, 2-{1-[(4-methoxyphenyl)methyl]-1H-indole-3-sulfonyl}-N-(5-methyl-1,2-oxazol-3-yl)acetamide], the EC50 is above 10 µM.
On the same count and under the same terms, to `Cc1cc(NC(=O)CS(=O)(=O)c2cn(Cc3ccc(C(F)(F)F)cc3)c3ccccc23)no1` [compound 53, N-(5-methyl-1,2-oxazol-3-yl)-2-(1-{[4-(trifluoromethyl)phenyl]methyl}-1H-indole-3-sulfonyl)acetamide] belongs above 10 µM.
As for `COc1cccc(Cn2cc(S(=O)(=O)CC(=O)Nc3cc(C)on3)c3ccccc32)c1` [compound 33, 2-((1-(3-methoxybenzyl)-1H-indol-3-yl)sulfonyl)-N-(5-methylisoxazol-3-yl)acetamide], the “Efficacy (% ACh maximum at 30 μM)” value came to 79% and the EC50 was determined as 6.54 µM.
For `Cc1cc(NC(=O)CS(=O)(=O)c2cn(Cc3cccc(F)c3)c3ccccc23)no1` [compound 28, 2-((1-(3-fluorobenzyl)-1H-indol-3-yl)sulfonyl)-N-(5-methylisoxazol-3-yl)acetamide], the EC50 was 5.22 µM.
Still for that read-out and setting: next, `Cc1cc(NC(=O)CS(=O)(=O)c2cn(Cc3ccc(F)c(Br)c3)c3ccccc23)no1` [compound 61, 2-{1-[(3-bromo-4-fluorophenyl)methyl]-1H-indole-3-sulfonyl}-N-(5-methyl-1,2-oxazol-3-yl)acetamide]: above 10 µM.
`O=C(CS(=O)(=O)c1cn(Cc2cccc(Br)c2)c2cc(F)cc(F)c12)NC1COC1` [compound 34, 2-((1-(3-bromobenzyl)-4,6-difluoro-1H-indol-3-yl)sulfonyl)-N-(oxetan-3-yl)acetamide]: the “Efficacy (% ACh maximum at 30 μM)” value is given as 43% and the EC50 is above 10 µM.
For `COc1ncc(-c2cccc(Cn3cc(S(=O)(=O)CC(=O)Nc4ccccn4)c4c(F)cc(F)cc43)c2)cn1` [compound 18, 2-((4,6-difluoro-1-(3-(2-methoxypyrimidin-5-yl)benzyl)-1H-indol-3-yl)sulfonyl)-N-(pyridin-2-yl)acetamide], the “Efficacy (% ACh maximum at 30 μM)” value is 50% and the EC50 came out at 3.4 µM.
For `[N-]=[N+]=Nc1cccc(Cn2cc(S(=O)(=O)CC(=O)Nc3ccccn3)c3c(F)cc(F)cc32)c1` [compound 13, 2-((1-(3-azidobenzyl)-4,6-difluoro-1H-indol-3-yl)sulfonyl)-N-(pyridin-2-yl)acetamide] the same measures were 53% and 2.8 µM.
As to `Cc1cc(NC(=O)CS(=O)(=O)c2cn(Cc3cccc(Br)c3F)c3ccccc23)no1` [compound 62, 2-{1-[(3-bromo-2-fluorophenyl)methyl]-1H-indole-3-sulfonyl}-N-(5-methyl-1,2-oxazol-3-yl)acetamide], the EC50 was above 10 µM.
